Measurements reported in the Kinase Knowledgebase extract (Sharma et al. 2016).

What follows are compounds tested against PIK3CG (human) (UniProt P48736) (assay: Inhibition of PIK3CG Kinase Activity).
PIK3CG (human), sequence (P48736 whole entry, looked up): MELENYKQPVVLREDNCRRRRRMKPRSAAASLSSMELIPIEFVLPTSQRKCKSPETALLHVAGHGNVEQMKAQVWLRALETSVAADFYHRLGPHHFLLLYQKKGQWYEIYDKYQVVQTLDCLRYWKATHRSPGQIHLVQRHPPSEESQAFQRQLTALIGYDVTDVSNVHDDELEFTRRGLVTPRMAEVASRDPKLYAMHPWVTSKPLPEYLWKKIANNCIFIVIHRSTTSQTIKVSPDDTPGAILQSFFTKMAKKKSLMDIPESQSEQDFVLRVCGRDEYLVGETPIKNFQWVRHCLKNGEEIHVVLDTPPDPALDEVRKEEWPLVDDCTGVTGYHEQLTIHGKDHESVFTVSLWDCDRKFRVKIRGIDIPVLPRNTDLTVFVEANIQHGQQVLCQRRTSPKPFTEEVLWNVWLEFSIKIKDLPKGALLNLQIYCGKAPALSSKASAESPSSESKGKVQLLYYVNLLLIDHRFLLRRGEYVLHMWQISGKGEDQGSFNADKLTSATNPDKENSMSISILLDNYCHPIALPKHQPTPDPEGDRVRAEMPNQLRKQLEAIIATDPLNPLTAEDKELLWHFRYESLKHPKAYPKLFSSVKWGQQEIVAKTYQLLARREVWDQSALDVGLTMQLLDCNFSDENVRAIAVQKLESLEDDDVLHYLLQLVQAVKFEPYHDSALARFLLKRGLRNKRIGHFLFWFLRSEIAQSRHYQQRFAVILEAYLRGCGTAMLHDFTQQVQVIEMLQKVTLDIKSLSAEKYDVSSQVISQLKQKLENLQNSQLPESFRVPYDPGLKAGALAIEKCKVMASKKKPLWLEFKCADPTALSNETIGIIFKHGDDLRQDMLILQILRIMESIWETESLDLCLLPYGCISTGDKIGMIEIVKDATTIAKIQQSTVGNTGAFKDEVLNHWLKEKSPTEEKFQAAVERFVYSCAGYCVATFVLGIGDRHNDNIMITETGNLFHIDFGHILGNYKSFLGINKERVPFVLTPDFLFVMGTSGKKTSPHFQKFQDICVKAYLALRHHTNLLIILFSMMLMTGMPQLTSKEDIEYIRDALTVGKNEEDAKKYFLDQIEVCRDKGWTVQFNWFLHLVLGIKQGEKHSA

SMILES	Ki
COc1cc(-c2ccc3c(n2)CN(c2cnn(Cc4ccncc4)c2)C3=O)cnc1OC	< 100 nM
COc1ccc(-c2cc(C)c3c(c2)C(C)N(c2cnn(CC(F)(F)F)c2)C3=O)cc1OC (stereo not given)	< 100 nM
COc1cc(-c2cc(C)c3c(c2)C(C)N(c2cnn(CC(F)(F)F)c2)C3=O)cnc1OC (stereo not given)	< 100 nM
Cc1cc(-c2cncc(OC(F)F)c2)nc2c1C(=O)N(c1cncc(CC#N)c1)C2	< 100 nM
COc1cc(-c2ccc3c(n2)CN(c2ccon2)C3=O)cnc1O	100 to 490 nM
CCOCCCOc1cc(-c2cc(C)c3c(n2)CN(c2cnn(CC(F)(F)F)c2)C3=O)cnc1OC	< 100 nM
COc1cc(-c2cc(C)c3c(n2)CN(c2nc(CO)cs2)C3=O)cnc1OC	< 100 nM
CCn1ccc(N2C(=O)c3c(C)cc(-c4cncc(OCC(F)F)c4)nc3C2C)n1 (stereo not given)	< 100 nM
COC(=O)Cc1cncc(N2Cc3nc(-c4cnc(OC)c(OC)c4)cc(C)c3C2=O)c1	< 100 nM
COc1cc(-c2ccc3c(n2)CN(c2cnn(C)n2)C3=O)cnc1OC	< 100 nM
CCOc1ncc(-c2cc(C)c3c(n2)CN(c2cnn(C(C)(C)C#N)c2)C3=O)cc1OC	< 100 nM
COc1cncc(-c2cc(C)c3c(n2)C(C)N(c2csc(C)n2)C3=O)c1 (stereo not given)	< 100 nM
Cc1ccc(-c2cc(C)c3c(n2)CN(c2cnn(CC(F)(F)F)c2)C3=O)cc1O	< 100 nM
CCOc1ncc(-c2cc(C)c3c(n2)[C@]2(CCCO2)N(c2ccn(CC)n2)C3=O)cc1OC	100 to 490 nM
COc1cc(-c2ccc3c(n2)CN(c2cnn(CC(F)(F)F)c2)C3=O)cnc1OC	< 100 nM
COc1cc(-c2cc(C)c3c(n2)[C@](C)(OC)N(c2cnn(CC(F)(F)F)c2)C3=O)cnc1OC	< 100 nM
Cc1cc(-c2cncc(C(=O)NC3CC3)c2)nc2c1C(=O)N(c1cnn(CC(F)(F)F)c1)C2(C)C	100 to 490 nM
COc1cc(-c2ccc3c(n2)[C@@H](C)N(c2cn(CC(F)(F)F)cn2)C3=O)cnc1OC	< 100 nM
CCn1ccc(N2C(=O)c3c(C)cc(-c4cncc(OC)c4)nc3[C@@H]2C)n1	< 100 nM
Cc1cc(-c2cncc(OC(F)F)c2)nc2c1C(=O)N(c1cnn(CC(F)(F)F)c1)[C@H]2C	< 100 nM
CCNC(=O)c1cc(-c2cc(C)c3c(n2)C2(COC2)N(c2cnn(CC(F)(F)F)c2)C3=O)cnc1C	< 100 nM
COc1cc(-c2ccc3c(n2)CN(c2cnn([C@H](CO)C(F)(F)F)c2)C3=O)cnc1OC	< 100 nM
COc1cc(-c2ccc3c(n2)C(N2CC(OC)C2)N(c2cnn(CC(F)(F)F)c2)C3=O)cnc1OC (stereo not given)	100 to 490 nM
Cc1cc(-c2cncc(OC(F)F)c2)nc2c1C(=O)N(c1ccnc(F)c1)C2C (stereo not given)	< 100 nM

SMILES	Ki
COc1cc(-c2ccc3c(n2)CN(c2cnn(CC(F)(F)F)c2)C3=O)cnc1OC(F)F	100 to 490 nM
COc1cc(-c2cc(C)c3c(n2)C(CC2CCOC2)N(c2cnn(CC(F)(F)F)c2)C3=O)cnc1OC (stereo not given)	< 100 nM
COc1ncc(-c2cc(C)c3c(n2)CN(c2cnn(CC(F)(F)F)c2)C3=O)cc1CO	< 100 nM
COc1cc(-c2ccc3c(n2)CN(c2ccon2)C3=O)cnc1OC	< 100 nM
COc1cncc(-c2cc(C)c3c(n2)C(C)(C)N(c2ccn(CC(C)(C)O)n2)C3=O)c1	100 to 490 nM
Cc1cc(-c2cncc(OCC(F)(F)F)c2)nc2c1C(=O)N(c1cn(CC(F)(F)F)cn1)C2	< 100 nM
COc1cc(OC)cc(-c2cc(C)c3c(n2)CN(c2cnn(C(C)(C)C#N)c2)C3=O)c1	< 100 nM
COc1cncc(-c2cc(C)c3c(n2)CN(c2ccn(CC(C)(C)O)n2)C3=O)c1	< 100 nM
COc1cc(OC)cc(-c2cc(C)c3c(n2)[C@@H](C)N(c2cnn(CC(F)(F)F)c2)C3=O)c1	< 100 nM
COc1cncc(-c2cc(C)c3c(n2)CN(c2cnn(CC(F)(F)F)c2)C3=O)c1	< 100 nM
COc1cc(-c2ccc3c(c2)CN(c2cccc(C(N)=O)c2)C3=O)cnc1OC	< 100 nM
Cc1cc(-c2ccc(N)nc2)nc2c1C(=O)N(c1cnn(CC(F)(F)F)c1)C2	< 100 nM
C=CC1(O)c2nc(-c3cncc(OC)c3)cc(C)c2C(=O)N1c1cnn(CC(F)(F)F)c1 (stereo not given)	100 to 490 nM
COc1cc(-c2ccc3c(n2)[C@H](C)N(c2cnn(CC#N)c2)C3=O)cnc1OC	< 100 nM
COc1cncc(-c2cc(C)c3c(n2)C(C)N(c2cc[nH]n2)C3=O)c1 (stereo not given)	< 100 nM
COc1cc(-c2cc(C3CC3)c3c(n2)CN(c2cnn(CC(F)(F)F)c2)C3=O)cnc1OC	< 100 nM
CCC(O)c1ncc(N2Cc3nc(-c4cnc(OC)c(OC)c4)cc(C)c3C2=O)cn1 (stereo not given)	< 100 nM
CCOc1cc(-c2cc(C)c3c(n2)CN(c2ccon2)C3=O)cnc1OC	< 100 nM
CCC#CCn1cc(N2Cc3cc(-c4cnc(OC)c(OC)c4)ccc3C2=O)cn1	< 100 nM
C=C(F)Cn1cc(N2Cc3nc(-c4cncc(OC(F)F)c4)cc(C)c3C2=O)cn1	< 100 nM
COc1cc(-c2ccc3c(n2)C(C)(C)N(c2cnn(CC#N)c2)C3=O)cnc1OC	< 100 nM
COc1ncc(-c2cc(C)c3c(n2)C(C)(C)N(c2cnn(CC(F)(F)F)c2)C3=O)cc1C(=O)NC[C@@H](O)CO	< 100 nM
COc1cc(-c2ccc3c(c2)CN(c2cc(C)n(C)n2)C3=O)cnc1OC	100 to 490 nM
COc1ncc(-c2cc(C)c3c(n2)CN(c2cnn(C(C)(C)C#N)c2)C3=O)cc1OCC(F)(F)F	< 100 nM

SMILES	Ki
COc1ncc(-c2cc(C)c3c(n2)CN(c2cnn(C(C)(C)C#N)c2)C3=O)cc1OC(C)C	< 100 nM
COc1ncc(-c2cc(C)c3c(c2)C(C)N(c2cnn(CC(F)(F)F)c2)C3=O)cc1F (stereo not given)	< 100 nM
COc1cc(-c2ccc3c(n2)CN(c2ccc(OCC#N)nc2)C3=O)cnc1OC	100 to 490 nM
Cc1cc(-c2cncc(S(C)(=O)=O)c2)nc2c1C(=O)N(c1cnn(CC(F)(F)F)c1)[C@H]2C	< 100 nM
Cc1cc(-c2cncc(OC(F)F)c2)nc2c1C(=O)N(c1cnn(C[C@H](C)O)c1)C2	< 100 nM
COc1cc(-c2ccc3c(n2)CN(c2ccn[nH]2)C3=O)cnc1OC	< 100 nM
COc1cncc(-c2cc(C)c3c(n2)C(C)(C)N(c2cnn(CC#N)c2)C3=O)c1	< 100 nM
COc1cc(-c2ccc3c(c2)CN(c2cnn(CC(C)C)c2)C3=O)cnc1OC	100 to 490 nM
CCn1ccc(N2Cc3nc(-c4cnc(OC)c(OC)c4)ccc3C2=O)n1	< 100 nM
COc1cncc(-c2cc(C)c3c(n2)C2(CCNCC2)N(c2cnn(CC(F)(F)F)c2)C3=O)c1	100 to 490 nM
COc1cc(-c2cc(C)c3c(n2)C(C)N(c2cnn(CC(F)F)c2)C3=O)cnc1OC (stereo not given)	< 100 nM
Cc1cc(-c2cncc(S(C)(=O)=O)c2)nc2c1C(=O)N(c1cnn(CC(F)(F)F)c1)C2(C)C	< 100 nM
COc1ncc(-c2cc(C)c3c(n2)CN(c2cn[nH]c2)C3=O)cc1OCC(F)(F)F	< 100 nM
COc1cncc(-c2cc(C)c3c(n2)CN(c2ccn(CC(C)(C)F)n2)C3=O)c1	< 100 nM
COc1ncc(-c2cc(C)c3c(n2)C(C)(C)N(c2cnn(CC(F)(F)F)c2)C3=O)cc1C(=O)N[C@H]1CCOC1	< 100 nM
COc1cncc(-c2cc(C)c3c(n2)C2(CCOCC2)N(c2cnn(CC(F)(F)F)c2)C3=O)c1	< 100 nM
COc1cncc(-c2cc(C)c3c(n2)[C@H](C)N(c2ccn(C[C@H](C)O)n2)C3=O)c1	< 100 nM
COc1cc(-c2cc(C)c3c(n2)[C@@](C)(O)N(c2cnn(CC(F)(F)F)c2)C3=O)cnc1OC	< 100 nM
COC(=O)Cc1cncc(N2Cc3nc(-c4cnc(OC)c(OC)c4)ccc3C2=O)c1	< 100 nM
CCOC1c2nc(-c3cnc(OC)c(OC)c3)ccc2C(=O)N1c1cnn(CC(F)(F)F)c1 (stereo not given)	< 100 nM
COc1cc(-c2cc(C)c3c(n2)CN(c2ccn(C(F)F)c(=O)c2)C3=O)cnc1OC	< 100 nM
CCn1ccc(N2C(=O)c3ccc(-c4cnc(OC)c(OC)c4)nc3[C@H]2C)n1	< 100 nM
Cc1cc(-c2cc(O)cc(OC(F)(F)F)c2)nc2c1C(=O)N(c1cnn(CC(F)(F)F)c1)C2	< 100 nM
COc1cc(-c2ccc3c(n2)[C@H](C)N(c2cccc(C(C)(C)C#N)n2)C3=O)cnc1OC	< 100 nM

SMILES	Ki
Cc1cc(-c2cncc(C(=O)O)c2)nc2c1C(=O)N(c1cnn(CC(F)(F)F)c1)C2(C)C	< 100 nM
COc1cc(-c2ccc3c(n2)C(C)N(c2ccn(CC(F)(F)F)n2)C3=O)cnc1OC (stereo not given)	< 100 nM
Cc1cc(-c2cncc(NC(=O)C(C)C)c2)nc2c1C(=O)N(c1cnn(CC(F)(F)F)c1)C2(C)C	100 to 490 nM
Cc1cc(-c2cncc(NC(=O)C(C)(C)C)c2)nc2c1C(=O)N(c1cnn(CC(F)(F)F)c1)C2(C)C	100 to 490 nM
COc1cc(-c2ccc3c(n2)CN(c2ccc(N4CCN(CCC#N)CC4)nc2)C3=O)cnc1OC	< 100 nM
COc1cc(-c2ccc3c(c2)CN(c2cnn(CC(F)F)c2)C3=O)cnc1OC	< 100 nM
CCCn1cc(N2Cc3cc(-c4cnc(OC)c(OC)c4)ccc3C2=O)cn1	100 to 490 nM
COc1cc(-c2ccc3c(n2)CN(c2cnn([C@H](C)C#N)c2)C3=O)cnc1OC	< 100 nM
CCn1ccc(N2C(=O)c3c(C)cc(-c4cncc(OC)c4)nc3C2C)n1 (stereo not given)	< 100 nM
COc1cc(-c2ccc3c(n2)CN(c2cnn(C(C)C#N)c2)C3=O)cnc1OC (stereo not given)	< 100 nM
CCn1cc(N2C(=O)c3ccc(-c4cnc(OC)c(OC)c4)nc3[C@@H]2C)cn1	< 100 nM
CCn1cc(N2C(=O)c3ccc(-c4cnc(OC)c(OC(F)F)c4)nc3[C@H]2C)cn1	< 100 nM
COc1cc(-c2ccc3c(n2)CN(c2cnn(C[C@H](O)CC#N)c2)C3=O)cnc1OC	< 100 nM
COc1cncc(-c2cc(C)c3c(n2)CN(c2ccn(CC(F)(F)F)n2)C3=O)c1	< 100 nM
COc1cc(-c2cc(C)c3c(n2)CN(c2cnn(C4CC4)c2)C3=O)cnc1OC	< 100 nM
CCO[C@@]1(C)c2nc(-c3cnc(OC)c(OC)c3)cc(C)c2C(=O)N1c1cnn(CC(F)(F)F)c1	< 100 nM
COCCOCn1cc(N2C(=O)c3ccc(-c4cnc(OC)c(OC)c4)nc3[C@H]2C)cn1	< 100 nM
COCCOc1ccc(N2Cc3nc(-c4cnc(OC)c(OC)c4)ccc3C2=O)cn1	< 100 nM
COc1cc(-c2ccc3c(n2)C(C)N(c2ccn(C[C@@H](C)O)n2)C3=O)cnc1OC (stereo not given in full)	< 100 nM
Cc1cc(-c2cncc(OC(F)F)c2)nc2c1C(=O)N(c1cnn(C(C)(C)C#N)c1)C2	< 100 nM
Cc1cc(-c2cncc(C(=O)O)c2)nc2c1C(=O)N(c1cnn(CC(F)(F)F)c1)C2	< 100 nM
Cc1cc(-c2cnc(C)c(OCC(F)F)c2)nc2c1C(=O)N(c1ccn([C@H]3CCOC3)n1)C2	< 100 nM
CCn1cc(N2Cc3nc(-c4cnc(OC)c(OC)c4)cc(C)c3C2=O)nn1	< 100 nM
